The supplement of paper PMC11061612

Assays:
A673 (Ewing's Sarcoma) = assay: Bliss excess, mean over the matrix (fraction); higher = more synergy
Procedure, shortened: (§1)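 Bliss excess equals the observed combination effect minus the expected value EA + EB − EA·EB, where EA and EB are the effects of each agent alone. Combination Emax is the second-highest inhibition within the matrix. Inhibition was scaled from CellTiter-Glo 2.0 luminescence, with 0 set by vehicle wells and 1 by blank wells, after 72 hours of two-drug dosing of cells plated in 1536-well plates.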

BE2-M17 (Neuroblastoma) = assay: as above
Procedure, shortened: as §1

[1] = tested on: CAL-33 (Oral Cavity Carcinoma); assay: as above
Procedure, shortened: as §1

CAL-72 (Osteosarcoma) = assay: as above
Procedure, shortened: as §1

[2] = tested on: Hs-746T (Gastric Carcinoma); assay: as above
Procedure, shortened: as §1

[3] = tested on: KMRC-20 (Kidney Carcinoma); assay: as above
Procedure, shortened: as §1

KS-1 (Glioblastoma) = assay: as above
Procedure, shortened: as §1

[4] = tested on: L-428 (Hodgkin's Lymphoma); assay: as above
Procedure, shortened: as §1

LOXIMVI (Melanoma) = assay: as above
Procedure, shortened: as §1

[5] = tested on: LS-123 (Colorectal Carcinoma); assay: as above
Procedure, shortened: as §1

[6] = tested on: NCI-H1568 (Lung Adenocarcinoma); assay: as above
Procedure, shortened: as §1

NCI-H2052 (Mesothelioma) = assay: as above
Procedure, shortened: as §1

[7] = tested on: NCI-H524 (Small Cell Lung Carcinoma); assay: as above
Procedure, shortened: as §1

[8] = tested on: NUGC-4 (Gastric Carcinoma); assay: as above
Procedure, shortened: as §1

[9] = tested on: SW1710 (Bladder Carcinoma); assay: as above
Procedure, shortened: as §1

[10] = tested on: TGBC1TKB (Biliary Tract Carcinoma); assay: as above
Procedure, shortened: as §1

[11] = tested on: ALL-PO (B-Lymphoblastic Leukemia); assay: combination Emax (second highest fraction inhibited in the dose matrix, 72 h); higher = more inhibition; extreme values may be limits of the assay
Procedure, shortened: as §1

[12] = tested on: Hs-746T (Gastric Carcinoma); assay: as above
Procedure, shortened: as §1

[13] = tested on: L-428 (Hodgkin's Lymphoma); assay: as above
Procedure, shortened: as §1

NCI-H2722 (Mesothelioma) = assay: as above
Procedure, shortened: as §1

Row | Compound | Bliss excess (A673 (Ewing's Sarcoma)) | Bliss excess (BE2-M17 (Neuroblastoma)) | Bliss excess [1] | Bliss excess (CAL-72 (Osteosarcoma)) | Bliss excess [2] | Bliss excess [3] | Bliss excess (KS-1 (Glioblastoma)) | Bliss excess [4] | Bliss excess (LOXIMVI (Melanoma)) | Bliss excess [5] | Bliss excess [6] | Bliss excess (NCI-H2052 (Mesothelioma)) | Bliss excess [7] | Bliss excess [8] | Bliss excess [9] | Bliss excess [10] | combination Emax [11] | combination Emax [12] | combination Emax [13] | combination Emax (NCI-H2722 (Mesothelioma))
1 | Cc1cc2ncnn2cc1Nc1ncc2c(n1)n(C1CCOCC1)c(=O)n2C [AZD7648] + CCN(CCO)CCCOc1ccc2c(Nc3cc(CC(=O)Nc4cccc(F)c4)[nH]n3)ncnc2c1 [AZD2811] (first compound max 10 µM, 7x7, partner max 1 µM) | -0.0672 | 0.01 | -0.0089 | 0.0448 | -0.0291 | 0.026 | -0.0405 | 0.0783 | -0.0125 | -0.0172 | -0.0172 | -0.0104 | -0.0043 | -0.0257 | 0.0167 | 0.0111 | 0.979 | 0.386 | 0.347 | 0.291
2 | CN(CCO)CC[C@H](CSc1ccccc1)Nc1ccc(S(=O)(=O)NC(=O)c2ccc(N3CCC([C@@H](O)c4ccccc4-c4ccc(Cl)cc4)CC3)cc2)cc1S(=O)(=O)C(F)(F)F [AZD4320] + CC(=O)O[C@H]1C(=O)[C@@]2(C)[C@H]([C@H](OC(=O)c3ccccc3)[C@]3(O)C[C@H](OC(=O)[C@H](O)[C@@H](NC(=O)c4ccccc4)c4ccccc4)C(C)=C1C3(C)C)[C@]1(OC(C)=O)CO[C@@H]1C[C@@H]2O [Paclitaxel] (first compound max 1 µM, 7x7, partner max 3 µM) | 0.0654 | – | – | 0.19 | – | – | 0.217 | – | 0.0164 | – | – | – | 0.0333 | – | 0.141 | 0.118 | – | – | – | –
3 | C[C@@H](c1ccc2nccn2c1)n1nnc2ncc(-c3cnn(C)c3)nc21 [Savolitinib] + Cc1c2c(nn1C)CSCc1cc(n(C)n1)CSc1cc(c3ccccc3c1)OCCCc1c(C(=O)O)n(C)c3c-2c(Cl)ccc13 [AZD5991] (first compound max 1 µM, 7x7, partner max 1 µM) | 0.0471 | -0.0285 | -0.0423 | -0.0077 | -0.0489 | -0.0733 | -0.0509 | -0.0296 | -0.0096 | -0.0234 | -0.05 | -0.0419 | -0.0115 | -0.0348 | -0.0351 | -0.0238 | 1 | 0.652 | 0.0947 | 0.2
4 | CN(CCO)CC[C@H](CSc1ccccc1)Nc1ccc(S(=O)(=O)NC(=O)c2ccc(N3CCC([C@@H](O)c4ccccc4-c4ccc(Cl)cc4)CC3)cc2)cc1S(=O)(=O)C(F)(F)F [AZD4320] + Cc1cc2ncnn2cc1Nc1ncc2c(n1)n(C1CCOCC1)c(=O)n2C [AZD7648] (first compound max 1 µM, 7x7, partner max 10 µM) | 0.0069 | -0.0059 | -0.009 | 0.0278 | -0.0371 | -0.0393 | 0.0033 | -0.0021 | 0.023 | – | -0.0325 | -0.0451 | -0.044 | -0.0725 | -0.058 | -0.0343 | 0.992 | 0.347 | 0.844 | 0.159
5 | Cc1cc2ncnn2cc1Nc1ncc2c(n1)n(C1CCOCC1)c(=O)n2C [AZD7648] + CN(C)CCCOc1ccc(-c2ccc3ncc4c(c3c2)n(C2CCOCC2)c(=O)n4C)cn1 [AZD0156] (first compound max 10 µM, 7x7, partner max 1 µM) | -0.0142 | -0.0026 | 0.0227 | -0.0908 | -0.024 | -0.0232 | -0.068 | 0.069 | -0.0141 | 0.0338 | -0.0213 | 0.0038 | 0.0254 | 0.0034 | -0.01 | -0.027 | 0.265 | 0.36 | 0.37 | 0.209
6 | CC(=O)c1c(C)c2cnc(Nc3ccc(N4CCNCC4)cn3)nc2n(C2CCCC2)c1=O [Palbociclib] + CN(CC[C@H](CSC1=CC=CC=C1)NC2=C(C=C(C=C2)S(=O)(=O)NC(=O)C3=CC=C(C=C3)N4CCC(CC4)[C@H](C5=CC=CC=C5C6=CC=C(C=C6)Cl)O)S(=O)(=O)C(F)(F)F)CCO [AZD4320] (first compound max 10 µM, 7x7, partner max 1 µM) | – | 0.0726 | -0.0398 | – | -0.0386 | -0.0504 | – | -0.0128 | – | – | -0.0747 | -0.0159 | – | -0.0067 | – | – | 1 | 0.408 | 0.866 | 0.283
7 | Cc1nc(Nc2ncc(C(=O)Nc3c(C)cccc3Cl)s2)cc(N2CCN(CCO)CC2)n1 [Dasatinib] + CC(=O)Nc1cccc(-n2c(=O)n(C3CC3)c(=O)c3c(Nc4ccc(I)cc4F)n(C)c(=O)c(C)c32)c1 [Trametinib] (first compound max 2 µM, 7x7, partner max 1 µM) | -0.075 | -0.0087 | -0.0189 | -0.0409 | -0.0943 | -0.0518 | -0.0429 | -0.0494 | 0.0175 | 0.0891 | 0.118 | -0.0528 | -0.0362 | 0.007 | -0.0546 | 0.123 | 0.451 | 0.746 | 0.128 | 0.487
8 | N#Cc1cnc(Nc2cc(NC[C@H]3CNCCO3)c(C(F)(F)F)cn2)cn1 [SRA737] + CCc1c2c(nc3ccc(O)cc13)-c1cc3c(c(=O)n1C2)COC(=O)[C@]3(O)CC [SN-38] (first compound max 10 µM, 7x7, partner max 0.3 µM) | -0.0511 | – | – | 0.0489 | – | – | -0.0798 | – | -0.0354 | -0.0163 | – | – | 0.113 | – | 0.0736 | 0.0008 | – | – | – | –
9 | N#Cc1cnc(Nc2cc(NC[C@H]3CNCCO3)c(C(F)(F)F)cn2)cn1 [SRA737] + C=CCn1c(=O)c2cnc(Nc3ccc(N4CCN(C)CC4)cc3)nc2n1-c1cccc(C(C)(C)O)n1 [AZD1775] (first compound max 10 µM, partner max 1 µM) | 0.0914 | – | – | 0.0934 | – | – | 0.0472 | – | 0.0086 | -0.0025 | – | – | 0.108 | – | 0.0292 | -0.0128 | – | – | – | –
10 | Cc1cc2ncnn2cc1Nc1ncc2c(n1)n(C1CCOCC1)c(=O)n2C [AZD7648] + COc1cc([C@@H]2c3cc4c(cc3[C@@H](O[C@@H]3O[C@@H]5CO[C@@H](C)O[C@H]5[C@H](O)[C@H]3O)[C@H]3COC(=O)[C@H]23)OCO4)cc(OC)c1O [Etoposide] (first compound max 10 µM, 7x7, partner max 10 µM) | 0.111 | – | – | 0.0314 | – | – | 0.0894 | – | 0.0988 | 0.0811 | – | – | 0.101 | – | -0.0119 | 0.0108 | – | – | – | –
11 | N#Cc1cnc(Nc2cc(NC[C@H]3CNCCO3)c(C(F)(F)F)cn2)cn1 [SRA737] + Nc1ccn([C@@H]2O[C@H](CO)[C@@H](O)C2(F)F)c(=O)n1 [Gemcitabine] (first compound max 10 µM, 7x7, partner max 0.3 µM) | 0.0343 | – | – | 0.0042 | – | – | 0.0304 | – | -0.0122 | 0.0948 | – | – | 0.0346 | – | 0.164 | 0.0401 | – | – | – | –
12 | C[C@@H](c1ccc2nccn2c1)n1nnc2ncc(-c3cnn(C)c3)nc21 [Savolitinib] + CN(CC[C@H](CSC1=CC=CC=C1)NC2=C(C=C(C=C2)S(=O)(=O)NC(=O)C3=CC=C(C=C3)N4CCC(CC4)[C@H](C5=CC=CC=C5C6=CC=C(C=C6)Cl)O)S(=O)(=O)C(F)(F)F)CCO [AZD4320] (first compound max 1 µM, 7x7, partner max 1 µM) | – | -0.0337 | -0.0104 | – | -0.0049 | -0.0048 | – | -0.0726 | – | – | -0.0571 | -0.0147 | – | -0.0363 | – | – | 0.989 | 0.753 | 0.773 | 0.308
13 | CN(CCO)CC[C@H](CSc1ccccc1)Nc1ccc(S(=O)(=O)NC(=O)c2ccc(N3CCC([C@@H](O)c4ccccc4-c4ccc(Cl)cc4)CC3)cc2)cc1S(=O)(=O)C(F)(F)F [AZD4320] + C[C@@H]1COCCN1C2=NC(=NC(=C2)C3(CC3)[S@](=N)(=O)C)C4=C5C=CNC5=NC=C4 [AZD6738] (first compound max 1 µM, 7x7, partner max 10 µM) | 0.028 | -0.0458 | 0.0019 | 0.05 | -0.0021 | -0.0289 | 0.0082 | -0.0103 | 0.0028 | – | -0.0135 | -0.0021 | -0.0467 | -0.0172 | -0.0455 | -0.0093 | 1 | 0.782 | 0.956 | 0.503
14 | CN(CCO)CC[C@H](CSc1ccccc1)Nc1ccc(S(=O)(=O)NC(=O)c2ccc(N3CCC([C@@H](O)c4ccccc4-c4ccc(Cl)cc4)CC3)cc2)cc1S(=O)(=O)C(F)(F)F [AZD4320] + CCN(CCO)CCCOc1ccc2c(Nc3cc(CC(=O)Nc4cccc(F)c4)[nH]n3)ncnc2c1 [AZD2811] (first compound max 1 µM, 7x7, partner max 1 µM) | 0.0819 | 0.12 | 0.0228 | 0.0528 | -0.0095 | 0.0024 | 0.0261 | 0.0083 | 0.0896 | – | -0.0102 | -0.0462 | -0.0163 | -0.0407 | -0.0291 | -0.0478 | 1 | 0.487 | 0.847 | 0.401
15 | COc1nnc2ccc(N3CCC(c4ccc(OCCN5CCN(C)C(=O)[C@H]5C)cc4)CC3)nn12 [AZD5153] + CN(CC[C@H](CSC1=CC=CC=C1)NC2=C(C=C(C=C2)S(=O)(=O)NC(=O)C3=CC=C(C=C3)N4CCC(CC4)[C@H](C5=CC=CC=C5C6=CC=C(C=C6)Cl)O)S(=O)(=O)C(F)(F)F)CCO [AZD4320] (first compound max 1 µM, 7x7, partner max 1 µM) | – | 0.0682 | -0.0117 | – | 0.0125 | 0.0384 | – | -0.0432 | – | – | -0.044 | -0.0348 | – | 0.0299 | – | – | 1 | 0.557 | 0.943 | 0.774
